Measured values as given in patent US9738634B2, “Heterocyclic amide compound and herbicide” (SYNGENTA PARTICIPATIONS AG, priority 2013, dated 2017).

Columns and labels:
Type in all cases: in vivo
Details in all cases: treatment dosage 320 g/ha
birds-eye speedwell = assay: Test Example 4: weedkilling efficacy by foliar treatment; p: birds-eye speedwell
How it was run: (§1)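 Seeds are spot-sown into sterilized diluvial soil and covered with about 1.5 cm of soil. After 14 days' greenhouse growth at 25 to 30° C, plants are sprayed on stems and leaves with diluted emulsion at the stated g/ha rate, then scored at 3 weeks.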

redroot pigweed [1] = assay: Test Example 4: weedkilling efficacy by foliar treatment; L: redroot pigweed
How it was run: as §1

beet [2] = assay: Test Example 4: foliar treatment, effect on crop; f: beet
How it was run: as §1

bulrush [3] = assay: Test Example 1: weedkilling efficacy, preemergent weed treatment in the submerged state; B: bulrush
How it was run: (§2)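 Visual scores against set criteria were taken 3 weeks after treatment. Compounds, as diluted emulsions at specified g/ha, went onto the water surface of 4 cm-flooded alluvial soil pots on the day weeds were sown and 2.5-leaf rice was transplanted; greenhouse held 25–30 °C.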

green foxtail [4] = assay: Test Example 4: weedkilling efficacy by foliar treatment; E: green foxtail
How it was run: as §1

common wind-grass [5] = assay: Test Example 3: weedkilling efficacy through soil treatment; J: common wind-grass
How it was run: (§3)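 Crop and weed responses were judged three weeks after a uniform surface spray of the water-diluted emulsion at the given g/ha rate. Seeds sat beneath about 1.5 cm of sterilized diluvial soil, and boxes stood in a greenhouse at 25 to 30° C.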

wheat [6] = assay: Test Example 4: foliar treatment, effect on crop; e: wheat
How it was run: as §1

black-grass [7] = assay: Test Example 4: weedkilling efficacy by foliar treatment; H: black-grass
How it was run: as §1

barnyard grass [8] = assay: Test Example 1: weedkilling efficacy, preemergent weed treatment in the submerged state; A: barnyard grass
How it was run: as §2

bulrush [9] = assay: Test Example 2: weedkilling efficacy, growth period weed treatment in the submerged state; B: bulrush
How it was run: (§4)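 Barnyard grass, bulrush and oval-leafed pondweed sown in alluvial soil under 4 cm flooding, greenhouse 25 to 30° C. At 1-2 leaf stage, water-diluted emulsion applied to the water surface at stated g/ha dosages; effects scored 3 weeks later.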

directly sown rice [10] = assay: Test Example 4: foliar treatment, effect on crop; b: directly sown rice
How it was run: as §1

common wind-grass [11] = assay: Test Example 4: weedkilling efficacy by foliar treatment; J: common wind-grass
How it was run: as §1

soybean [12] = assay: Test Example 3: soil treatment, effect on crop; d: soybean
How it was run: as §3

chickweed [13] = assay: Test Example 4: weedkilling efficacy by foliar treatment; N: chickweed
How it was run: as §1

corn [14] = assay: Test Example 3: soil treatment, effect on crop; c: corn
How it was run: as §3

soybean [15] = assay: Test Example 4: foliar treatment, effect on crop; d: soybean
How it was run: as §1

transplanted rice = assay: Test Example 1: preemergent weed treatment in the submerged state, effect on crop; a: transplanted rice
How it was run: as §2

green foxtail [16] = assay: Test Example 3: weedkilling efficacy through soil treatment; E: green foxtail
How it was run: as §3

Italian ryegrass [17] = assay: Test Example 4: weedkilling efficacy by foliar treatment; I: Italian ryegrass
How it was run: as §1

wild oat [18] = assay: Test Example 4: weedkilling efficacy by foliar treatment; G: wild oat
How it was run: as §1

wheat [19] = assay: Test Example 3: soil treatment, effect on crop; e: wheat
How it was run: as §3

Indian mallow [20] = assay: Test Example 3: weedkilling efficacy through soil treatment; K: Indian mallow
How it was run: as §3

fig-leafed goosefoot [21] = assay: Test Example 3: weedkilling efficacy through soil treatment; M: fig-leafed goosefoot
How it was run: as §3

directly sown rice [22] = assay: Test Example 3: soil treatment, effect on crop; b: directly sown rice
How it was run: as §3

fig-leafed goosefoot [23] = assay: Test Example 4: weedkilling efficacy by foliar treatment; M: fig-leafed goosefoot
How it was run: as §1

black-grass [24] = assay: Test Example 3: weedkilling efficacy through soil treatment; H: black-grass
How it was run: as §3

redroot pigweed [25] = assay: Test Example 3: weedkilling efficacy through soil treatment; L: redroot pigweed
How it was run: as §3

oval-leafed pondweed [26] = assay: Test Example 2: weedkilling efficacy, growth period weed treatment in the submerged state; C: oval-leafed pondweed
How it was run: as §4

barnyard grass [27] = assay: Test Example 4: weedkilling efficacy by foliar treatment; F: barnyard grass
How it was run: as §1

rapeseed [28] = assay: Test Example 3: soil treatment, effect on crop; g: rapeseed
How it was run: as §3

wild oat [29] = assay: Test Example 3: weedkilling efficacy through soil treatment; G: wild oat
How it was run: as §3

crabgrass [30] = assay: Test Example 4: weedkilling efficacy by foliar treatment; D: crabgrass
How it was run: as §1

crabgrass [31] = assay: Test Example 3: weedkilling efficacy through soil treatment; D: crabgrass
How it was run: as §3

oval-leafed pondweed [32] = assay: Test Example 1: weedkilling efficacy, preemergent weed treatment in the submerged state; C: oval-leafed pondweed
How it was run: as §2

corn [33] = assay: Test Example 4: foliar treatment, effect on crop; c: corn
How it was run: as §1

Indian mallow [34] = assay: Test Example 4: weedkilling efficacy by foliar treatment; K: Indian mallow
How it was run: as §1

barnyard grass [35] = assay: Test Example 2: weedkilling efficacy, growth period weed treatment in the submerged state; A: barnyard grass
How it was run: as §4

Italian ryegrass [36] = assay: Test Example 3: weedkilling efficacy through soil treatment; I: Italian ryegrass
How it was run: as §3

chickweed [37] = assay: Test Example 3: weedkilling efficacy through soil treatment; N: chickweed
How it was run: as §3

rapeseed [38] = assay: Test Example 4: foliar treatment, effect on crop; g: rapeseed
How it was run: as §1

beet [39] = assay: Test Example 3: soil treatment, effect on crop; f: beet
How it was run: as §3

catchweed = assay: Test Example 4: weedkilling efficacy by foliar treatment; O: catchweed
How it was run: as §1

barnyard grass [40] = assay: Test Example 3: weedkilling efficacy through soil treatment; F: barnyard grass
How it was run: as §3

## CC1=C(c2ccccc2)C(=O)N(C(C)(C)C(=O)Nc2cc(F)nc(F)c2)CO1 [B-4-04]
birds-eye speedwell
  P (birds-eye speedwell) weedkilling efficacy grade: 4 (weed kill ratio 70% or more, less than 90%)
Redroot pigweed [1]
  L (redroot pigweed) weedkilling efficacy grade: 3 (weed kill ratio 40% or more, less than 70%)
Beet [2]
  f (beet) effect on crop grade: 4 (weed kill ratio 70% or more, less than 90%)
Bulrush [3]
  B (bulrush) weedkilling efficacy grade: 5 (weed kill ratio 90% or more, (practically complete withering))
Green foxtail [4]
  E (green foxtail) weedkilling efficacy grade: 4 (weed kill ratio 70% or more, less than 90%)
Common wind-grass [5]
  J (common wind-grass) weedkilling efficacy grade: 5 (weed kill ratio 90% or more, (practically complete withering))
Wheat [6]
  e (wheat) effect on crop grade: 4 (weed kill ratio 70% or more, less than 90%)
black-grass [7]
  H (black-grass) weedkilling efficacy grade: 4 (weed kill ratio 70% or more, less than 90%)
Barnyard grass [8]
  A (barnyard grass) weedkilling efficacy grade: 5 (weed kill ratio 90% or more, (practically complete withering))
Bulrush [9]
  B (bulrush) weedkilling efficacy grade: 5 (weed kill ratio 90% or more, (practically complete withering))
Directly sown rice [10]
  b (directly sown rice) effect on crop grade: 4 (weed kill ratio 70% or more, less than 90%)
Common wind-grass [11]
  J (common wind-grass) weedkilling efficacy grade: 4 (weed kill ratio 70% or more, less than 90%)
Soybean [12]
  d (soybean) effect on crop grade: 0 (weed kill ratio 5% or less (practically no effect))
Chickweed [13]
  N (chickweed) weedkilling efficacy grade: 3 (weed kill ratio 40% or more, less than 70%)
Corn [14]
  c (corn) effect on crop grade: 0 (weed kill ratio 5% or less (practically no effect))
Soybean [15]
  d (soybean) effect on crop grade: 1 (weed kill ratio 5% or more, less than 20%)
Transplanted rice
  a (transplanted rice) effect on crop grade: 0 (weed kill ratio 5% or less (practically no effect))
Green foxtail [16]
  E (green foxtail) weedkilling efficacy grade: 5 (weed kill ratio 90% or more, (practically complete withering))
Italian ryegrass [17]
  I (Italian ryegrass) weedkilling efficacy grade: 4 (weed kill ratio 70% or more, less than 90%)
Wild oat [18]
  G (wild oat) weedkilling efficacy grade: 2 (weed kill ratio 20% or more, less than 40%)
Wheat [19]
  e (wheat) effect on crop grade: 0 (weed kill ratio 5% or less (practically no effect))
Indian mallow [20]
  K (Indian mallow) weedkilling efficacy grade: 0 (weed kill ratio 5% or less (practically no effect))
fig-leafed goosefoot [21]
  M (fig-leafed goosefoot) weedkilling efficacy grade: 3 (weed kill ratio 40% or more, less than 70%)
Directly sown rice [22]
  b (directly sown rice) effect on crop grade: 3 (weed kill ratio 40% or more, less than 70%)
fig-leafed goosefoot [23]
  M (fig-leafed goosefoot) weedkilling efficacy grade: 4 (weed kill ratio 70% or more, less than 90%)
black-grass [24]
  H (black-grass) weedkilling efficacy grade: 5 (weed kill ratio 90% or more, (practically complete withering))
Redroot pigweed [25]
  L (redroot pigweed) weedkilling efficacy grade: 3 (weed kill ratio 40% or more, less than 70%)
oval-leafed pondweed [26]
  C (oval-leafed pondweed) weedkilling efficacy grade: 5 (weed kill ratio 90% or more, (practically complete withering))
Barnyard grass [27]
  F (barnyard grass) weedkilling efficacy grade: 4 (weed kill ratio 70% or more, less than 90%)
Rapeseed [28]
  g (rapeseed) effect on crop grade: 4 (weed kill ratio 70% or more, less than 90%)
Wild oat [29]
  G (wild oat) weedkilling efficacy grade: 0 (weed kill ratio 5% or less (practically no effect))
Crabgrass [30]
  D (crabgrass) weedkilling efficacy grade: 4 (weed kill ratio 70% or more, less than 90%)
Crabgrass [31]
  D (crabgrass) weedkilling efficacy grade: 5 (weed kill ratio 90% or more, (practically complete withering))
oval-leafed pondweed [32]
  C (oval-leafed pondweed) weedkilling efficacy grade: 5 (weed kill ratio 90% or more, (practically complete withering))
Corn [33]
  c (corn) effect on crop grade: 1 (weed kill ratio 5% or more, less than 20%)
Indian mallow [34]
  K (Indian mallow) weedkilling efficacy grade: 5 (weed kill ratio 90% or more, (practically complete withering))
Barnyard grass [35]
  A (barnyard grass) weedkilling efficacy grade: 5 (weed kill ratio 90% or more, (practically complete withering))
Italian ryegrass [36]
  I (Italian ryegrass) weedkilling efficacy grade: 5 (weed kill ratio 90% or more, (practically complete withering))
Chickweed [37]
  N (chickweed) weedkilling efficacy grade: 4 (weed kill ratio 70% or more, less than 90%)
Rapeseed [38]
  g (rapeseed) effect on crop grade: 3 (weed kill ratio 40% or more, less than 70%)
Beet [39]
  f (beet) effect on crop grade: 2 (weed kill ratio 20% or more, less than 40%)
catchweed
  O (catchweed) weedkilling efficacy grade: 4 (weed kill ratio 70% or more, less than 90%)
Barnyard grass [40]
  F (barnyard grass) weedkilling efficacy grade: 5 (weed kill ratio 90% or more, (practically complete withering))
